Measured values from ChEMBL document CHEMBL4418261, “Pyripyropene derivatives having acat2 inhibiting activity and stable to metabolizing enzymes” (2017).

Tests used:
[1] = molecular target: T1, Sterol O-acyltransferase 2 (Mus musculus, UniProt O88908); assay: Inhibition of ACAT2 in mouse hepatic microsome membranes using [1-14C]oleoyl coenzyme A as substrate incubated for 5 mins; type: microsomes, Liver
T1 sequence (O88908 whole entry): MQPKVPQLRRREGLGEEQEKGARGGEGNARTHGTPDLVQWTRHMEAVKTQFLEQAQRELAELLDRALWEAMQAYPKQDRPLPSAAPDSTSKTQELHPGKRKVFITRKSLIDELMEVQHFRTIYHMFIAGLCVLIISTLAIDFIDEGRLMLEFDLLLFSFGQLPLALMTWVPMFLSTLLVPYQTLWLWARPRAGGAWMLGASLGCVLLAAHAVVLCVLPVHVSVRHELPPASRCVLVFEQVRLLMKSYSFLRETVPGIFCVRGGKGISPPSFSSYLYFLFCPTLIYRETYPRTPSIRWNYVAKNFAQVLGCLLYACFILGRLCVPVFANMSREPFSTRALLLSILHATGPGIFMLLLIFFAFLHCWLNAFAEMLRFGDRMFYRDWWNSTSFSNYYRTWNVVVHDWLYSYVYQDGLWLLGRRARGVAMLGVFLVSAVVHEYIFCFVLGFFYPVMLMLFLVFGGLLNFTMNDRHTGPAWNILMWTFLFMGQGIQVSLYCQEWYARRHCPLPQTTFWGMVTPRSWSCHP

[2] = Half life in Sprague-Dawley rat hepatic microsomes at 6 ug/ml by LC-MS method; type: ADME, Microsome; conditions: liver microsomes
[3] = molecular target: T2, Sterol O-acyltransferase 2 (Mus musculus) (UniProt O88908); assay: Potency index, ratio of PRD-043 IC50 to test compound IC50 for inhibition ACAT2 in mouse hepatic microsome membranes using [1-14C]oleoyl coenzyme A as substrate incubated for 5 mins; type: microsomes
T2 sequence (whole entry): T1 sequence (O88908 whole entry)

IC50 [1] [nM]	half-life at 6 ug/ml [2] [h]	Ratio IC50 [3]	Compound
0.5 to 1	> 9	10 to 20	COC(=O)[C@]1(C)[C@@H](OC(C)=O)CC[C@]2(C)[C@H]3[C@@H](O)c4c(cc(-c5cccnc5)oc4=O)O[C@]3(C)[C@@H](OC(=O)c3ccc(C#N)cc3)C[C@H]21
1 to 10	> 9	10 to 20	Cc1ccccc1[C@@H]1OC[C@@]2(C)[C@@H]3C[C@H](OC(=O)c4ccc(C#N)cc4)[C@@]4(C)Oc5cc(-c6cccnc6)oc(=O)c5[C@H](O)[C@@H]4[C@@]3(C)CC[C@@H]2O1
< 0.5	> 9	< 20	COc1ccc(CNC(=O)[C@]2(C)[C@@H](OC(C)=O)CC[C@]3(C)[C@H]4[C@@H](O)c5c(cc(-c6cccnc6)oc5=O)O[C@]4(C)[C@@H](OC(=O)c4ccc(C#N)cc4)C[C@H]32)c(OC)c1
< 0.5	> 9	< 20	CC(=O)O[C@H]1CC[C@]2(C)[C@H]3[C@@H](O)c4c(cc(-c5cccnc5)oc4=O)O[C@]3(C)[C@@H](OC(=O)c3ccc(C#N)cc3)C[C@H]2[C@]1(C)C(=O)O
